Data set [1] concerns the target T1, Solute carrier family 22 member 7 (Mus musculus, UniProt Q91WU2).
T1 sequence (Q91WU2 whole entry): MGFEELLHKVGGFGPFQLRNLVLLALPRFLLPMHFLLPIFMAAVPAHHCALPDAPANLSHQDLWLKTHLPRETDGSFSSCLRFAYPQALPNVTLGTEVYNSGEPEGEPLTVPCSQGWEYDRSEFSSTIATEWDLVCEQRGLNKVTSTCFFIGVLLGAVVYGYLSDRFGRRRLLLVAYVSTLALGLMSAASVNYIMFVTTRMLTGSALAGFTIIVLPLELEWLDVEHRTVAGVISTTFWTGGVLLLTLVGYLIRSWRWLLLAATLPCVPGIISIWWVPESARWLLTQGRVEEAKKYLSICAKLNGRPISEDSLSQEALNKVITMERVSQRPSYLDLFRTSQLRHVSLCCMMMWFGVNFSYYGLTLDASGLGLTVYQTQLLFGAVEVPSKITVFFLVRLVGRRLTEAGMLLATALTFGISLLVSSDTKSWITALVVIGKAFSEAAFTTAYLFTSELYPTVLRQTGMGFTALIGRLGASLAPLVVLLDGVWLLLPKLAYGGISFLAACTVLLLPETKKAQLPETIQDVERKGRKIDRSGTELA
Description: (§1) TP_TRANSPORTER: uptake in Xenopus laevis oocytes. In kind it is functional, cell-based. The note with it: oocyte.

Data set [2] deals with T1, Solute carrier family 22 member 7. Description: TP_TRANSPORTER: inhibition of Glutarate uptake (Glutarate: 5 uM, Erythromycin: 1000 uM) in Xenopus laevis oocytes. In kind it is functional, cell-based. The conditions noted are these: oocyte.
Data set [3] has the same target. Description: TP_TRANSPORTER: inhibition of Glutarate uptake (Glutarate: 5 uM, Enalapril: 1000 uM) in Xenopus laevis oocytes. It is filed as functional, cell-based. The conditions noted are these: oocyte.
Data set [4] has the same target. Description: TP_TRANSPORTER: inhibition of Glutarate uptake (Glutarate: 5 uM, Cefoperazone: 1000 uM) in Xenopus laevis oocytes. It is filed as functional, cell-based. The note with it: oocyte.
For data set [5] the target is unchanged. Description: TP_TRANSPORTER: inhibition of Glutarate uptake (Glutarate: 5 uM, BSP: 250 uM) in Xenopus laevis oocytes. In kind it is functional, cell-based. The conditions noted are these: oocyte.
The target is the same in data set [6]. Description: TP_TRANSPORTER: inhibition of Glutarate uptake (Glutarate: 5 uM, ICG: 1000 uM) in Xenopus laevis oocytes. It is filed as functional, cell-based. The note with it: oocyte.
Data set [7] shares this target. Description: TP_TRANSPORTER: inhibition of Glutarate uptake (Glutarate: 5 uM, Oxaloacetate: 1000 uM) in Xenopus laevis oocytes. It is filed as functional, cell-based. The conditions noted are these: oocyte.
Substrate in data set [8]: CCCCC[C@H](O)/C=C/[C@H]1[C@H](O)CC(=O)[C@@H]1C/C=C\CCCC(=O)O
The data set is described as §1. It is filed as functional, cell-based, Oocyte.

Substrate in data set [9]: O=C(O)CCCC(=O)O
The description is as §1. In kind it is functional, cell-based, Oocyte.

Experimental findings from ChEMBL document CHEMBL2074292, “Isolation, characterization and differential gene expression of multispecific organic anion transporter 2 in mice” (Mol Pharmacol, 2002) are described below.

Take `O=C(O)c1ccccc1O` [SALICYLIC ACID]: the Activity entry in data set [1] was “is not a substrate [-]”. Regarding `CC[C@H]1OC(=O)[C@H](C)[C@@H](O[C@H]2C[C@@](C)(OC)[C@@H](O)[C@H](C)O2)[C@H](C)[C@@H](O[C@@H]2O[C@H](C)C[C@H](N(C)C)[C@H]2O)[C@](C)(O)C[C@@H](C)C(=O)[C@H](C)[C@@H](O)[C@]1(C)O` [ERYTHROMYCIN], in [2], the Activity entry is “inhibitor [(at a rough estimate) 20 % of control]”. In the case of `Oc1ncnc2[nH]ncc12` [ALLOPURINOL], the Activity entry in data set [1] is “substrate [+]”. For `C[C@@H]1Cc2c(Cl)cc(C(=O)N[C@@H](Cc3ccccc3)C(=O)O)c(O)c2C(=O)O1` [3R14S-OCHRATOXIN A], in data set [1], the Activity result was “substrate [+]”. With `Nc1ccc(C(=O)NCC(=O)O)cc1` [AMINOHIPPURIC ACID], in data set [1], the Activity entry was “substrate [+]”. As to `CCOC(=O)[C@H](CCc1ccccc1)N[C@@H](C)C(=O)N1CCC[C@H]1C(=O)O` [ENALAPRIL], in data set [3], the Activity result was “inhibitor [(at a rough estimate) 30 % of control]”. As for `O=C(O)CCC(=O)C(=O)O` [ALPHA-KETOGLUTARIC ACID], in data set [1], the Activity result was “substrate [+]”. Turning to `CCN1CCN(C(=O)N[C@@H](C(=O)N[C@@H]2C(=O)N3C(C(=O)O)=C(CSc4nnnn4C)CS[C@H]23)c2ccc(O)cc2)C(=O)C1=O` [CEFOPERAZONE], the Activity entry in data set [4] was “inhibitor [(at a rough estimate) 40 % of control]”. For `CCCC(CCC)C(=O)O` [VALPROIC ACID], the Activity entry in data set [1] was “substrate [+]”.

With `O=C1OC(c2ccc(O)c(S(=O)(=O)[O-])c2)(c2ccc(O)c(S(=O)(=O)[O-])c2)c2c(Br)c(Br)c(Br)c(Br)c21.[Na+].[Na+]` [SULFOBROMOPHTHALEIN SODIUM], in [5], the Activity entry is “inhibitor [(at a rough estimate) 25 % of control]”. Take `CC1(C)C(/C=C/C=C/C=C/C=C2/N(CCCCS(=O)(=O)[O-])c3ccc4ccccc4c3C2(C)C)=[N+](CCCCS(=O)(=O)[O-])c2ccc3ccccc3c21.[Na+]` [INDOCYANINE GREEN]: in [6], the Activity entry is “inhibitor [(at a rough estimate) 30 % of control]”. `O=C(O)CC(=O)C(=O)O` [OXALOACETATE]: the Activity entry in [7] is “inhibitor [(at a rough estimate) 45 % of control]”.

B1: Solute carrier family 22 member 7 (Mus musculus) (protein)
chain: MGFEELLHKVGGFGPFQLRNLVLLALPRFLLPMHFLLPIFMAAVPAHHCALPDAPANLSHQDLWLKTHLPRETDGSFSSCLRFAYPQALPNVTLGTEVYNSGEPEGEPLTVPCSQGWEYDRSEFSSTIATEWDLVCEQRGLNKVTSTCFFIGVLLGAVVYGYLSDRFGRRRLLLVAYVSTLALGLMSAASVNYIMFVTTRMLTGSALAGFTIIVLPLELEWLDVEHRTVAGVISTTFWTGGVLLLTLVGYLIRSWRWLLLAATLPCVPGIISIWWVPESARWLLTQGRVEEAKKYLSICAKLNGRPISEDSLSQEALNKVITMERVSQRPSYLDLFRTSQLRHVSLCCMMMWFGVNFSYYGLTLDASGLGLTVYQTQLLFGAVEVPSKITVFFLVRLVGRRLTEAGMLLATALTFGISLLVSSDTKSWITALVVIGKAFSEAAFTTAYLFTSELYPTVLRQTGMGFTALIGRLGASLAPLVVLLDGVWLLLPKLAYGGISFLAACTVLLLPETKKAQLPETIQDVERKGRKIDRSGTELA
Take B1: the figures for the Km in data set [8] and in [9] were 0.0052 µM and 15.8 µM, respectively.

The Km is the concentration of substrate that gives half-maximal velocity.
